From PubChem BioAssay (NCI)
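Following 48 hours of exposure in 96-well plates, responses at five concentrations were used to interpolate endpoints linearly. Here, GI50 denotes the concentration required for 50% inhibition of growth. TGI denotes the concentration required for complete inhibition of growth.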

Experiments:
Assay in all cases: NCI tumour cell line growth inhibition, 48 h
[1] = system: RPMI-8226 leukemia
[2] = system: NCI-H522 lung
[3] = system: OVCAR-8 ovarian
[4] = system: SN12C renal
[5] = system: PC-3 prostate
[6] = system: HCT-15 colon
[7] = system: MCF7 breast
[8] = system: A498 renal
[9] = system: SF-295 CNS
[10] = system: ACHN renal
[11] = system: SNB-19 CNS
[12] = system: MDA-MB-435
[13] = system: EKVX NSCLC
[14] = system: NCI/ADR-RES ovarian
[15] = system: OVCAR-3 ovarian
[16] = system: OVCAR-4 ovarian
[17] = system: U251 CNS
[18] = system: T-47D breast
[19] = system: SW-620 colon
[20] = system: MDA-MB-231 breast
[21] = system: NCI-H23 lung
[22] = system: UO-31 renal
[23] = system: SF-539 CNS
[24] = system: K-562 leukemia
[25] = system: SK-OV-3 ovarian
[26] = system: MDA-MB-468 breast
[27] = system: NCI-H226 lung
[28] = system: HCC-2998 colon
[29] = system: NCI-H460 lung
[30] = system: SF-268 CNS
[31] = system: SR leukemia
[32] = system: HT29 colon
[33] = system: IGROV1 ovarian
[34] = system: UACC-62 melanoma
[35] = system: HOP-62 NSCLC
[36] = system: TK-10 renal
[37] = system: RXF 393 renal
[38] = system: M14 melanoma
[39] = system: A549 NSCLC
[40] = system: OVCAR-5 ovarian
[41] = system: MALME-3M melanoma
[42] = system: LOX IMVI melanoma
[43] = system: MOLT-4 leukemia
[44] = system: SK-MEL-28 melanoma
[45] = system: KM12 colon
[46] = system: 786-0 renal
[47] = system: HOP-92 NSCLC
[48] = system: HL-60(TB) leukemia
[49] = system: CCRF-CEM leukemia
[50] = system: HS 578T breast
[51] = system: HCT-116 colon
[52] = system: DU-145 prostate
[53] = system: CAKI-1 renal

In the case of `COc1ccc(NC(=O)Nc2nc3ccc([N+](=O)[O-])cc3s2)cc1`, the GI50 [1] was 1.83 µM, the TGI [1] was 5.97 µM and the GI50 [2] was 1.72 µM. For the same molecule, the TGI [2] was 5.94 µM, the GI50 [3] was 3.18 µM and the TGI [3] was 13.7 µM. For the same molecule, the GI50 [4] was 2.66 µM, the TGI [4] was 8.64 µM and the GI50 [5] was 2.15 µM. It also gave a TGI [5] of 8.35 µM, a GI50 [6] of 2.68 µM and a TGI [6] of 10.4 µM. It also gave a GI50 [7] of 2.2 µM, a TGI [7] of 6.31 µM and a GI50 [8] of 1.66 µM. It also gave a TGI [8] of 4.83 µM, a GI50 [9] of 1.9 µM and a TGI [9] of 4.3 µM. For the same molecule, the GI50 [10] was 2.48 µM, the TGI [10] was 7.09 µM and the GI50 [11] was 2.85 µM. The TGI [11] was 16.8 µM, the GI50 [12] was 1.92 µM and the TGI [12] was 5.68 µM. For the same molecule, the GI50 [13] was 2.66 µM, the TGI [13] was 7.96 µM and the GI50 [14] was 2.62 µM. The TGI [14] was 8.16 µM, the GI50 [15] was 2.15 µM and the TGI [15] was 5.36 µM. The GI50 [16] was 2.84 µM, the TGI [16] was 12.6 µM and the GI50 [17] was 2.24 µM. It also gave a TGI [17] of 5.76 µM, a GI50 [18] of 1.67 µM and a TGI [18] of 6.66 µM. It also gave a GI50 [19] of 3.07 µM, a TGI [19] of 13.8 µM and a GI50 [20] of 2.76 µM. It also gave a TGI [20] of 7.86 µM, a GI50 [21] of 2.22 µM and a TGI [21] of 6.64 µM. The GI50 [22] was 2.51 µM, the TGI [22] was 8.98 µM and the GI50 [23] was 2.41 µM. The TGI [23] was 5.95 µM, the GI50 [24] was 2.71 µM and the TGI [24] was 13 µM. For the same molecule, the GI50 [25] was 2.37 µM, the TGI [25] was 7.09 µM and the GI50 [26] was 1.66 µM. For the same molecule, the TGI [26] was 4.17 µM, the GI50 [27] was 2.31 µM and the TGI [27] was 6.63 µM. For the same molecule, the GI50 [28] was 2.72 µM, the TGI [28] was 9.54 µM and the GI50 [29] was 2.37 µM. For the same molecule, the TGI [29] was 5.79 µM, the GI50 [30] was 2.91 µM and the TGI [30] was 16.2 µM. It also gave a GI50 [31] of 2.52 µM, a TGI [31] of 12.8 µM and a GI50 [32] of 3.34 µM. The TGI [32] was 14.8 µM, the GI50 [33] was 3.37 µM and the TGI [33] was 15.3 µM. The GI50 [34] was 2.63 µM, the TGI [34] was > 100 µM and the GI50 [35] was 2.92 µM. The TGI [35] was 10.7 µM, the GI50 [36] was 3.66 µM and the TGI [36] was 10.7 µM. For the same molecule, the GI50 [37] was 2.54 µM, the TGI [37] was 7.24 µM and the GI50 [38] was 2.73 µM. The TGI [38] was 9.02 µM, the GI50 [39] was 2.23 µM and the TGI [39] was 6.22 µM. For the same molecule, the GI50 [40] was 2.8 µM, the TGI [40] was 9.95 µM and the GI50 [41] was 2.19 µM. The TGI [41] was 6.21 µM, the GI50 [42] was 2.42 µM and the TGI [42] was 6.18 µM. It also gave a GI50 [43] of 2.71 µM, a TGI [43] of 10.7 µM and a GI50 [44] of 3.09 µM. It also gave a TGI [44] of 11.9 µM, a GI50 [45] of 2.22 µM and a TGI [45] of 5.92 µM. It also gave a GI50 [46] of 2.89 µM, a TGI [46] of 11.6 µM and a GI50 [47] of 1.92 µM. It also gave a TGI [47] of 5.97 µM, a GI50 [48] of 2.1 µM and a TGI [48] of 5.84 µM. For the same molecule, the GI50 [49] was 2.27 µM, the TGI [49] was 7.69 µM and the GI50 [50] was 2.81 µM. For the same molecule, the TGI [50] was 8.21 µM, the GI50 [51] was 2.52 µM and the TGI [51] was 7.67 µM. It also gave a GI50 [52] of 3.02 µM, a TGI [52] of 11.4 µM and a GI50 [53] of 2.08 µM. The TGI [53] was 5.01 µM.
